# Source: patent publication US9371275B2, “5-aminolevulinic acid prodrugs for use in photodynamic therapy and photodynamic diagnosis” (Swedish Pharma AB, priority 2008, dated 2016)
# How the values were obtained:
# human living cells = test: PpIX synthesis in human living cells, spectrofluorometric measurements (fluorescence at 632 nm); assay type: cell-based
# Source text: Using the spectrum of PpIX as reference (FIG. 2), a comparison between PpIX synthesis by the oxime compound according to the invention with that based on the methyl ester of 5ALA currently in clinical use (MetVix), was made on human living cells using spectrofluorometric measurements.
# Diamonds=5ALA methyl ester (MetVix); Squares=5ALA oxime 20% w/w in Essex™ cream.
# [1] = after intravenous injection; very slow clearance rate from the body; cited from earlier work
# [2] = after application of 5ALA or known derivatives; cited from earlier work
structure (smiles),measurement,setting,value
NCC(CCC(=O)O)=NO [5-ALA oxime],production of PpIX,human living cells,capable of producing PpIX
same,time for which elevated levels of PpIX are retained after application,"human living cells; 5ALA oxime 20% w/w in Essex cream, human cells, fluorescence at 632 nm",at least 6 h
same,concentration of PpIX generated compared with 5ALA methyl ester (MetVix),"human living cells; 3 h after application, 5-ALA oxime 20% (w/w) in Essex cream, human cells",higher concentration of PpIX
"Oc1cccc(-c2c3nc(c(-c4cccc(O)c4)c4ccc([nH]4)c(-c4cccc(O)c4)c4nc(c(-c5cccc(O)c5)c5ccc2[nH]5)CC4)C=C3)c1 [Foscan, temoporfin]",duration of patient hypersensitization,[1],up to 3 weeks
"NCC(=O)CCC(=O)O [5ALA, 5-aminolevulinic acid]",time after application at which PpIX concentration reaches optimal therapeutic window,[2],2 to 4 h
same,time in which PpIX concentration decays to normal background levels,[2],36 to 48 h
